According to US8722849B2, “Polypeptides” (Novo Nordisk A/S, priority 2011, dated 2014):
Starred links: 1 amine or outer side, 2 acyl side, 3 side chain; linkers in the order of their positions; H or OH if unused. Positions of bridges follow the written chain, without caps; N, C: chain ends. Residues, ends and D or L forms follow the SMILES beside them. *: point of attachment. C20 diacid = O=C(O)CCCCCCCCCCCCCCCCCCC(=O)*; γGlu = O=C(O)[C@H](CCC(=O)[*:2])N[*:1]

How the values were obtained:
food intake = assay: Assay (I) efficacy testing on appetite (food intake), ad libitum fed rat model; assay type: in vivo, Sprague Dawley (SD) rats
From the text: In the following examples reference is made to the following Assays: • Assay (I)— Experimental protocol for efficacy testing on appetite using an ad libitum fed rat model • ASSAY (II)a—Functional assay—Human calcitonin and amylin receptor assay • ASSAY (II)b—Functional assay—Rat calcitonin and rat amylin receptor assays • ASSAY (III)—ThT fibrillation assays for the assessment of physical stability of protein formulations • ASSAY (IV)—Determination of solubility • ASSAY (V)—Determination of binding to the human amylin receptor • ASSAY (VI)—Determination of the binding to the rat amylin receptor • ASSAY (VII)—Determination of binding to the human calcitonin receptor • ASSAY (VIII)—Determination of binding to the rat calcitonin receptor • ASSAY (IX)—pK—Determination of T % in mini-pig • ASSAY (X)—pK—Determination of T % in rat ASSAY (I)—Experimental Protocol for Efficacy Testing on Appetite Using an Ad Libitum Fed Rat Model
Sprague Dawley (SD) rats from Taconic Europe, Denmark are used for the experiments. The rats have a body weight 200-250 g at the start of experiment. The rats arrive at least 10-14 days before start of experiment to allow acclimatization to experimental settings. During this period the animals are handled at least 2 times. After arrival rats are housed individually for one week in a reversed light/dark phase (meaning that lights are off during daytime and on during nighttime) […]. Since rats are normally active and eat their major part of their daily food intake during the dark period, rats are dosed in the morning right before lights are turned off. This set-up results in the lowest data variation and highest test sensitivity. The experiment is conducted in the rats' home cages and rats have free access to food and water throughout the acclimatization period and the experiment period. Each dose of derivative is tested in a group of 5-8 rats. A vehicle group of 6-8 rats is included in each set of testing. Rats are dosed once according to body weight with a 0.01-3 mg/kg solution administered intraperitoneally (ip), orally (po) or subcutaneously (sc). The time of dosing is recorded for each group. After dosing, the rats are returned to their home cages, where they then have access to food and water. The food consumption is recorded individually continuously by on-line registration or manually every hour for 7 hours, and then after 24 h and sometimes 48 h. At the end of the experimental session, the animals are euthanised.
The individual data are recorded in Microsoft excel sheets. Outliers are excluded after applying the Grubbs statistical evaluation test for outliers, and the result is presented graphically using the GraphPad Prism program.

[1] = Assay (III) ThT fibrillation assay for physical stability; assay type: physicochemical
Method in brief: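 Freshly prepared formulations, pH-adjusted, with 1 μM ThT; four or eight replicates incubated at 37 °C under 960 rpm orbital shaking. Fluorescence (ex 444/em 485 nm) read every 20 min; […]. Peptide concentration measured by RP-HPLC before and after the run.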

Structure (SMILES) | ThT pH 4.0 lag time (h) ([1]; ThT fibrillation assay) | ThT pH 4.0 lag time ([1]; Table 8) [h] | ThT pH 4.0 lag time ([1]; Table 9) [h] | ThT pH 4.0 lag time ([1]; ThT fibrillation assay) [h] | Food intake reduction 0-24 h 3 nmol/kg (%) (food intake; 0-24 h) | Food intake reduction 24-48 h 3 nmol/kg (%) (food intake; 24-48 h) | Food intake reduction 0-24 h 30 nmol/kg (%) (food intake; 0-24 h, 30 nmol/kg) | Food intake reduction 24-48 h 30 nmol/kg (%) (food intake; 24-48 h, 30 nmol/kg)
CC[C@H](C)[C@H](NC(=O)[C@@H]1CCCN1C(=O)CNC(=O)[C@H](Cc1ccccc1)NC(=O)[C@H](CC(N)=O)NC(=O)[C@H](CC(N)=O)NC(=O)[C@H](CO)NC(=O)[C@H](CO)NC(=O)[C@H](Cc1c[nH]cn1)NC(=O)[C@H](Cc1c[nH]cn1)NC(=O)[C@H](CC(C)C)NC(=O)[C@H](Cc1ccccc1)NC(=O)[C@H](CCC(=O)O)NC(=O)[C@H](C)NC(=O)[C@H](CC(C)C)NC(=O)[C@H](CCCNC(=N)N)NC(=O)[C@H](CCC(N)=O)NC(=O)[C@@H](NC(=O)[C@H](C)NC(=O)[C@@H]1CSSC[C@H](NC(=O)[C@H](CCC(=O)O)NC(=O)CC[C@H](NC(=O)CCCCCCCCCCCCCCCCCCC(=O)O)C(=O)O)C(=O)N[C@@H](CC(N)=O)C(=O)N[C@@H]([C@@H](C)O)C(=O)N[C@@H](C)C(=O)N[C@@H]([C@@H](C)O)C(=O)N1)[C@@H](C)O)C(=O)N[C@@H](CC(C)C)C(=O)N1CCC[C@H]1C(=O)N1CCC[C@H]1C(=O)N[C@H](C(=O)N[C@@H](CC(N)=O)C(=O)N[C@H](C(=O)NCC(=O)N[C@@H](CO)C(=O)N[C@@H](CC(N)=O)C(=O)N[C@H](C(=O)N[C@@H](Cc1ccc(O)cc1)C(N)=O)[C@@H](C)O)C(C)C)[C@@H](C)O [Example 29, N-alpha-[(S)-4-Carboxy-4-(19-carboxynonadecanoylamino)butyryl]-[Glu1,Glu14,His17]-pramlintide] ({C20 diacid-γGlu}-ECNTATCATQRLAEFLHHSSNNFGPILPPTNVGSNTY-NH2; disulfide 2-7 (inferred)) | 3 |  |  |  | 15 | 5 |  | 
CC[C@H](C)[C@H](NC(=O)[C@@H]1CCCN1C(=O)CNC(=O)[C@H](Cc1ccccc1)NC(=O)[C@H](CC(N)=O)NC(=O)[C@H](CC(N)=O)NC(=O)[C@H](CO)NC(=O)[C@H](CO)NC(=O)[C@H](Cc1c[nH]cn1)NC(=O)[C@H](Cc1c[nH]cn1)NC(=O)[C@H](CC(C)C)NC(=O)[C@H](Cc1ccccc1)NC(=O)[C@H](CCC(=O)O)NC(=O)[C@H](C)NC(=O)[C@H](CC(C)C)NC(=O)[C@H](CCCNC(=N)N)NC(=O)[C@H](CCC(N)=O)NC(=O)[C@@H](NC(=O)[C@H](C)NC(=O)[C@@H]1CSSC[C@H](NC(=O)[C@H](CCCCN)NC(=O)CC[C@H](NC(=O)CCCCCCCCCCCCCCCCCCC(=O)O)C(=O)O)C(=O)N[C@@H](CC(N)=O)C(=O)N[C@@H]([C@@H](C)O)C(=O)N[C@@H](C)C(=O)N[C@@H]([C@@H](C)O)C(=O)N1)[C@@H](C)O)C(=O)N[C@@H](CC(C)C)C(=O)N1CCC[C@H]1C(=O)N1CCC[C@H]1C(=O)N[C@H](C(=O)N[C@@H](CC(N)=O)C(=O)N[C@H](C(=O)NCC(=O)N[C@@H](CO)C(=O)N[C@@H](CC(N)=O)C(=O)N[C@H](C(=O)N1CCC[C@H]1C(N)=O)[C@@H](C)O)C(C)C)[C@@H](C)O [Example 52, N-alpha-[(S)-4-Carboxy-4-(19-carboxynonadecanoylamino)butyryl]-[Glu14,His17,Pro37]-pramlintide] ({C20 diacid-γGlu}-KCNTATCATQRLAEFLHHSSNNFGPILPPTNVGSNTP-NH2; disulfide 2-7 (inferred); C-terminus assumed) | >45 | >45 | >45 | >45 | 62 | 74 |  | 

More lines, main results first:

ThT pH 4.0 lag time (h) ([1]; ThT fibrillation assay) | ThT pH 4.0 lag time ([1]; Table 8) [h] | ThT pH 4.0 lag time ([1]; Table 9) [h] | ThT pH 4.0 lag time ([1]; ThT fibrillation assay) [h] | Structure (SMILES) | Food intake reduction 0-24 h 3 nmol/kg (%) (food intake; 0-24 h) | Food intake reduction 24-48 h 3 nmol/kg (%) (food intake; 24-48 h) | Food intake reduction 0-24 h 30 nmol/kg (%) (food intake; 0-24 h, 30 nmol/kg) | Food intake reduction 24-48 h 30 nmol/kg (%) (food intake; 24-48 h, 30 nmol/kg)
37 |  |  | 37 | CC[C@H](C)[C@H](NC(=O)[C@@H]1CCCN1C(=O)CNC(=O)[C@H](Cc1ccccc1)NC(=O)[C@H](CC(N)=O)NC(=O)[C@H](CC(N)=O)NC(=O)[C@H](CO)NC(=O)[C@H](CO)NC(=O)[C@H](Cc1c[nH]cn1)NC(=O)[C@H](Cc1c[nH]cn1)NC(=O)[C@H](CC(C)C)NC(=O)[C@H](Cc1ccccc1)NC(=O)[C@H](CCC(=O)O)NC(=O)[C@H](C)NC(=O)[C@H](CC(C)C)NC(=O)[C@H](CCCNC(=N)N)NC(=O)[C@H](CCC(N)=O)NC(=O)[C@@H](NC(=O)[C@H](C)NC(=O)[C@@H]1CSSC[C@H](NC(=O)[C@H](CCCCN)NC(=O)CC[C@H](NC(=O)CCCCCCCCCCCCCCCCCCC(=O)O)C(=O)O)C(=O)N[C@@H](CC(N)=O)C(=O)N[C@@H]([C@@H](C)O)C(=O)N[C@@H](C)C(=O)N[C@@H]([C@@H](C)O)C(=O)N1)[C@@H](C)O)C(=O)N[C@@H](CC(C)C)C(=O)N1CCC[C@H]1C(=O)N1CCC[C@H]1C(=O)N[C@H](C(=O)N[C@@H](CC(N)=O)C(=O)N[C@H](C(=O)NCC(=O)N[C@@H](CO)C(=O)N[C@@H](Cc1c[nH]cn1)C(=O)N[C@H](C(=O)N[C@@H](Cc1ccc(O)cc1)C(N)=O)[C@@H](C)O)C(C)C)[C@@H](C)O [Example 55, N-alpha-[(S)-4-Carboxy-4-(19-carboxynonadecanoylamino)butyryl]-[Glu14,His17,His35]-pramlintide] ({C20 diacid-γGlu}-KCNTATCATQRLAEFLHHSSNNFGPILPPTNVGSHTY-NH2; disulfide 2-7 (inferred)) | 58 | 40 | 88 | 90
>45 | >45 | >45 | >45 | CC[C@H](C)[C@H](NC(=O)[C@@H]1CCCN1C(=O)CNC(=O)[C@H](Cc1ccccc1)NC(=O)[C@H](CC(N)=O)NC(=O)[C@H](CC(N)=O)NC(=O)[C@H](CO)NC(=O)[C@H](CO)NC(=O)[C@H](Cc1c[nH]cn1)NC(=O)[C@H](CCCNC(=N)N)NC(=O)[C@H](CC(C)C)NC(=O)[C@H](Cc1ccccc1)NC(=O)[C@H](CCC(=O)O)NC(=O)[C@H](C)NC(=O)[C@H](CC(C)C)NC(=O)[C@H](CCCNC(=N)N)NC(=O)[C@H](CCC(N)=O)NC(=O)[C@@H](NC(=O)[C@H](C)NC(=O)[C@@H]1CSSC[C@H](NC(=O)[C@H](CCCCN)NC(=O)CC[C@H](NC(=O)CCCCCCCCCCCCCCCCCCC(=O)O)C(=O)O)C(=O)N[C@@H](CC(N)=O)C(=O)N[C@@H]([C@@H](C)O)C(=O)N[C@@H](C)C(=O)N[C@@H]([C@@H](C)O)C(=O)N1)[C@@H](C)O)C(=O)N[C@@H](CC(C)C)C(=O)N1CCC[C@H]1C(=O)N1CCC[C@H]1C(=O)N[C@H](C(=O)N[C@@H](CC(N)=O)C(=O)N[C@H](C(=O)NCC(=O)N[C@@H](CO)C(=O)N[C@@H](Cc1c[nH]cn1)C(=O)N[C@H](C(=O)N[C@@H](Cc1ccc(O)cc1)C(N)=O)[C@@H](C)O)C(C)C)[C@@H](C)O [Example 57, N-alpha-[(S)-4-Carboxy-4-(19-carboxynonadecanoylamino)butyryl]-[Glu14,Arg17,His35]-pramlintide] ({C20 diacid-γGlu}-KCNTATCATQRLAEFLRHSSNNFGPILPPTNVGSHTY-NH2; disulfide 2-7 (inferred); C-terminus assumed) | 17 | 0 |  | 
25.6 | 25.6 |  | 25.6 | CC[C@H](C)[C@H](NC(=O)[C@@H]1CCCN1C(=O)CNC(=O)[C@H](Cc1ccccc1)NC(=O)[C@H](CC(N)=O)NC(=O)[C@H](CC(N)=O)NC(=O)[C@H](CO)NC(=O)[C@H](CO)NC(=O)[C@H](Cc1c[nH]cn1)NC(=O)[C@H](Cc1c[nH]cn1)NC(=O)[C@H](CC(C)C)NC(=O)[C@H](Cc1ccccc1)NC(=O)[C@H](CCC(=O)O)NC(=O)[C@H](C)NC(=O)[C@H](CC(C)C)NC(=O)[C@H](CCCNC(=N)N)NC(=O)[C@H](CCC(N)=O)NC(=O)[C@@H](NC(=O)[C@H](C)NC(=O)[C@@H]1CSSC[C@H](NC(=O)[C@H](Cc2c[nH]cn2)NC(=O)CC[C@H](NC(=O)CCCCCCCCCCCCCCCCCCC(=O)O)C(=O)O)C(=O)N[C@@H](CC(N)=O)C(=O)N[C@@H]([C@@H](C)O)C(=O)N[C@@H](C)C(=O)N[C@@H]([C@@H](C)O)C(=O)N1)[C@@H](C)O)C(=O)N[C@@H](CC(C)C)C(=O)N1CCC[C@H]1C(=O)N1CCC[C@H]1C(=O)N[C@H](C(=O)N[C@@H](CC(N)=O)C(=O)N[C@H](C(=O)NCC(=O)N[C@@H](CO)C(=O)N[C@@H](CC(N)=O)C(=O)N[C@H](C(=O)N1CCC[C@H]1C(N)=O)[C@@H](C)O)C(C)C)[C@@H](C)O [Example 84, N-alpha-[(S)-4-Carboxy-4-(19-carboxynonadecanoylamino)butyryl]-[His1,Glu14,His17,Pro37]-pramlintide] ({C20 diacid-γGlu}-HCNTATCATQRLAEFLHHSSNNFGPILPPTNVGSNTP-NH2; disulfide 2-7 (inferred); C-terminus assumed) | 68 | 67 |  | 
